Laboratory results from patent publication US20240376099A1, “COMPOUNDS AND COMPOSITIONS AS INHIBITORS OF ENDOSOMAL TOLL-LIKE RECEPTORS” (Novartis AG, priority 2016, published 2024).

Target: T1, TLR8 (Homo sapiens, UniProt Q9NR97)
T1 sequence (Q9NR97 27-1041): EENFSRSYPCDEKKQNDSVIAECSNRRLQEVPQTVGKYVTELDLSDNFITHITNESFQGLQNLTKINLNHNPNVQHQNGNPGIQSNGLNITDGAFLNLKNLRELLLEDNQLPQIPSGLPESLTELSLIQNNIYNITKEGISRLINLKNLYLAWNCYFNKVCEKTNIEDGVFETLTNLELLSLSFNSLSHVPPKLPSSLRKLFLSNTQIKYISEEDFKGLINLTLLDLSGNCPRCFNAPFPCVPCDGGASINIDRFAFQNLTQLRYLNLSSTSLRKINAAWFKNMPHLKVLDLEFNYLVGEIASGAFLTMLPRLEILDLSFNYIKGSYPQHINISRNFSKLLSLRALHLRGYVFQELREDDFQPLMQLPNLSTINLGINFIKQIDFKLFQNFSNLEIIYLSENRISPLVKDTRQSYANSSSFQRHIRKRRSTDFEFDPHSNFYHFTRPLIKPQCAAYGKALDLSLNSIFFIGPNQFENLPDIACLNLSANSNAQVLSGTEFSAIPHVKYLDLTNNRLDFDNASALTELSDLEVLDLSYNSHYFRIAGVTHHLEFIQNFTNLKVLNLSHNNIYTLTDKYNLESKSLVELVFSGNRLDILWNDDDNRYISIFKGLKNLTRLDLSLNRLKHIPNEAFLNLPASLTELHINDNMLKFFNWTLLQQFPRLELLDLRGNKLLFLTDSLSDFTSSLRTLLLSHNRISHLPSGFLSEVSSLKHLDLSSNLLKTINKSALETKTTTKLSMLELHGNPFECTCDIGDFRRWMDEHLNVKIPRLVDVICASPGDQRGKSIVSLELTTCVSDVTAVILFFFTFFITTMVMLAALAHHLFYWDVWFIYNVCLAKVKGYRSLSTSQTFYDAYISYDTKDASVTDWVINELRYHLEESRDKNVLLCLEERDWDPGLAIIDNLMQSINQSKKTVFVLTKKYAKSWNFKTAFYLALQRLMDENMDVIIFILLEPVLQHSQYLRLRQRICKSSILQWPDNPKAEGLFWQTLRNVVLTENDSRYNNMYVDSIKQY
Assay: huPBMC TLR8 Antagonist IL-6 TR-FRET Assay
Assay type: cell-based
Set-up: Fresh blood was collected from normal human donors; endogenous in cells; host or cells: human PBMCs from fresh donor blood
Conditions: human PBMCs stimulated with ssRNA40 1 μg/ml (DOTAP), 14-16 hrs; IL-6 TR-FRET read-out
Method in brief: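 Human PBMCs from fresh donor blood (150,000 cells/well) stimulated 14–16 h at 37 °C with DOTAP-complexed ssRNA40 (final 1 μg/ml for TLR8, 10 μg/mL for TLR7) or ODN2216 (final 0.3 μM, TLR9), 0.25% DMSO, ten-point 1/3 compound dilutions. Supernatant IL-6 read by HTRF (TLR8); IFNα by IFNα2b AlphaLISA (TLR7/TLR9).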

| IC50 | Structure (SMILES) |
| --- | --- |
| 43 nM | Cc1cc(N2CCc3c(c(C)nn3CC34CCC(NC(=O)C5CNCCO5)(CC3)CC4)C2)c2cnn(C)c2n1 (stereo not drawn) [compound 125, N-(4-((5-(1,6-dimethyl-1H-pyrazolo[3,4-b]pyridin-4-yl)-3-methyl-4,5,6,7-tetrahydro-1H-pyrazolo[4,3-c]pyridin-1-yl)methyl)bicyclo[2.2.2]octan-1-yl)morpholine-2-carboxamide] |
| 153 nM | CCNCCC(=O)NC12CCC(Cn3nc(C)c4c3CCN(c3cc(C)nc5c3cnn5C)C4)(CC1)CC2 [compound 126, N-(4-((5-(1,6-dimethyl-1H-pyrazolo[3,4-b]pyridin-4-yl)-3-methyl-4,5,6,7-tetrahydro-1H-pyrazolo[4,3-c]pyridin-1-yl)methyl)bicyclo[2.2.2]octan-1-yl)-3-(ethylamino)propanamide] |
| 1430 nM | CCNC12CCC(Cn3nc(C)c4c3CCN(c3ccnc(-c5ccccc5)c3)C4)(CC1)CC2 [compound 127, N-ethyl-4-((3-methyl-5-(2-phenylpyridin-4-yl)-4,5,6,7-tetrahydro-1H-pyrazolo[4,3-c]pyridin-1-yl)methyl)bicyclo[2.2.2]octan-1-amine] |
| 13 nM | Cc1cc(N2CCc3c(c(C)nn3CC34CCC(N5CCOC[C@@H]5C)(CC3)CC4)C2)c2cnn(C)c2n1 [compound 128, (S)-4-(4-((5-(1,6-dimethyl-1H-pyrazolo[3,4-b]pyridin-4-yl)-3-methyl-4,5,6,7-tetrahydro-1H-pyrazolo[4,3-c]pyridin-1-yl)methyl)bicyclo[2.2.2]octan-1-yl)-3-methylmorpholine] |
| 12 nM | Cc1cc(N2CCc3c(c(C)nn3CC34CCC(N5CCOC[C@H]5C)(CC3)CC4)C2)c2cnn(C)c2n1 [compound 129, (R)-4-(4-((5-(1,6-dimethyl-1H-pyrazolo[3,4-b]pyridin-4-yl)-3-methyl-4,5,6,7-tetrahydro-1H-pyrazolo[4,3-c]pyridin-1-yl)methyl)bicyclo[2.2.2]octan-1-yl)-3-methylmorpholine] |
| 2830 nM | COCCNC12CCC(Cn3nc(C)c4c3CCN(c3ccnc(-c5ccccc5)c3)C4)(CC1)CC2 [compound 130, N-(2-methoxyethyl)-4-((3-methyl-5-(2-phenylpyridin-4-yl)-4,5,6,7-tetrahydro-1H-pyrazolo[4,3-c]pyridin-1-yl)methyl)bicyclo[2.2.2]octan-1-amine] |
| 361 nM | Cc1cc(N2CCc3c(c(C)nn3CC34CCC(NC(=O)C5CNC5)(CC3)CC4)C2)c2cnn(C)c2n1 [compound 131, N-(4-((5-(1,6-dimethyl-1H-pyrazolo[3,4-b]pyridin-4-yl)-3-methyl-4,5,6,7-tetrahydro-1H-pyrazolo[4,3-c]pyridin-1-yl)methyl)bicyclo[2.2.2]octan-1-yl)azetidine-3-carboxamide] |
| 8 nM | CCN(C)CC(=O)NC12CCC(Cn3nc(C)c4c3CCN(c3cc(C)nc5c3cnn5C)C4)(CC1)CC2 [compound 132, N-(4-((5-(1,6-dimethyl-1H-pyrazolo[3,4-b]pyridin-4-yl)-3-methyl-4,5,6,7-tetrahydro-1H-pyrazolo[4,3-c]pyridin-1-yl)methyl)bicyclo[2.2.2]octan-1-yl)-2-(ethyl(methyl)amino)acetamide] |
| 93 nM | [2H]C([2H])([2H])N(CC(=O)NC12CCC(Cn3nc(C)c4c3CCN(c3cc(C)nc5c3cnn5C)C4)(CC1)CC2)C([2H])([2H])[2H] [compound 134, 2-(bis(trideuteromethyl)amino)-N-(4-((5-(1,6-dimethyl-1H-pyrazolo[3,4-b]pyridin-4-yl)-3-methyl-4,5,6,7-tetrahydro-1H-pyrazolo[4,3-c]pyridin-1-yl)methyl)bicyclo[2.2.2]octan-1-yl)acetamide] |
| 68 nM | Cc1cc(N2CCc3c(c(C)nn3CC34CCC(NCC5(CO)COC5)(CC3)CC4)C2)c2cnn(C)c2n1 [compound 137, (3-(((4-((5-(1,6-dimethyl-1H-pyrazolo[3,4-b]pyridin-4-yl)-3-methyl-4,5,6,7-tetrahydro-1H-pyrazolo[4,3-c]pyridin-1-yl)methyl)bicyclo[2.2.2]octan-1-yl)amino)methyl)oxetan-3-yl)methanol] |
| 2290 nM | CCn1ncc2c(N3CCc4c(c(C)nn4CC45CCC(NC(=O)[C@@H]6COCCN6)(CC4)CC5)C3)cc(C)nc21 [compound 141, (S)-N-(4-((5-(1-ethyl-6-methyl-1H-pyrazolo[3,4-b]pyridin-4-yl)-3-methyl-4,5,6,7-tetrahydro-1H-pyrazolo[4,3-c]pyridin-1-yl)methyl)bicyclo[2.2.2]octan-1-yl)morpholine-3-carboxamide] |
| 932 nM | CNCCC(=O)NC12CCC(Cn3nc(C)c4c3CCN(c3cc(C)nc5c3cnn5C)C4)(CC1)CC2 [compound 142, N-(4-((5-(1,6-dimethyl-1H-pyrazolo[3,4-b]pyridin-4-yl)-3-methyl-4,5,6,7-tetrahydro-1H-pyrazolo[4,3-c]pyridin-1-yl)methyl)bicyclo[2.2.2]octan-1-yl)-3-(methylamino)propanamide] |
| 687 nM | Cc1cc(N2CCc3c(c(C)nn3CC34CCC(NC5CCC5)(CC3)CO4)C2)c2cnn(C)c2n1 [compound 143, N-cyclobutyl-1-((5-(1,6-dimethyl-1H-pyrazolo[3,4-b]pyridin-4-yl)-3-methyl-4,5,6,7-tetrahydro-1H-pyrazolo[4,3-c]pyridin-1-yl)methyl)-2-oxabicyclo[2.2.2]octan-4-amine] |
| 105 nM | Cc1nn(CC23CCC(NC4CCC4)(CC2)CC3)c2c1CN(c1ccnc(-c3ccccc3)c1)CC2 [compound 144, N-cyclobutyl-4-((3-methyl-5-(2-phenylpyridin-4-yl)-4,5,6,7-tetrahydro-1H-pyrazolo[4,3-c]pyridin-1-yl)methyl)bicyclo[2.2.2]octan-1-amine] |
| > 10000 nM | Cc1cc(N2CCc3c(c(C)nn3CC34CCC(NC(=O)OC(C)(C)C)(CC3)C4)C2)c2cnn(C)c2n1 [compound 148, tert-butyl (4-((5-(1,6-dimethyl-1H-pyrazolo[3,4-b]pyridin-4-yl)-3-methyl-4,5,6,7-tetrahydro-1H-pyrazolo[4,3-c]pyridin-1-yl)methyl)bicyclo[2.2.1]heptan-1-yl)carbamate] |
